The text below walks through data of paper PMC8810914 (Biochemistry, 2021).

pKd: −log10 of the molar value.

One test has as its target Udorn M2 WT (Influenza A virus, UniProt P0DOF5). Description: two-electrode voltage clamp electrophysiological. Type of test: binding, influenza A virus A/Udorn/72. The note with it: amantadine vs rimantadine. For orientation: Two-electrode voltage clamp holds a large cell at a set potential and records current.
The next test deals with M2 WT. The conditions noted are these: only binding curve recorded; upper limit of the true Kd; cited from earlier work.

Sequence of Udorn M2 WT (P0DOF5 whole entry, looked up): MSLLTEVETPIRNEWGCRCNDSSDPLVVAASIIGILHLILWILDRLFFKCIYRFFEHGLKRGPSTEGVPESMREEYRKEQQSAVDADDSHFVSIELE

On to `NC12CC3CC(CC(C3)C1)C2` [amantadine], for which the “binding affinity to Udorn M2 WT weaker than rimantadine” value on Udorn M2 WT is reported as “about 10 fold”.

As for `C[C@H](N)C12CC3CC(CC(C3)C1)C2` [(S)-rimantadine], the pKd (commonly the Kd on a negative log10 scale, so that one unit is a factor of ten) at M2 WT was 5.41.

Take `CC(N)C12CC3CC(CC(C3)C1)C2` (racemic) [rimantadine (racemic), rimantadine]: the pKd at M2 WT was 5.15.
